Source: patent US20010044445A1, “AZOLE INHIBITORS OF CYTOKINE PRODUCTION” (priority 1999, published 2001)
pIC50: −log10 of the molar value.

Key:
[1] = test system: Human peripheral blood mononuclear cells; assay: Human Concanavalin-A Proliferation Assay (Con HU Assay); format: cell-based; conditions: Homo sapiens, PBMC, concanavalin-A stimulated human PBMC; for inhibition at 1 µM / inhibition at 10 µM / inhibition at 100 µM: 72 h, 3 days, read-out: % Inhibition of proliferation (at concentrations of 1,10, or 100 μm); for inhibition at 1 µM: concentration 1 μm (in parentheses in the cell); for pIC50: tritiated thymidine; for inhibition at 10 µM: concentration 10 μm (in parentheses in the cell); for inhibition at 100 µM: concentration 100 μm (in parentheses in the cell)
Summary of the method: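 Proliferation read as tritiated thymidine uptake (0.5 μCi/well, 6 h pulse on day 3) in human PBMC cultured 3 days with 2.5 μg/ml (final) concanavalin-A. Cells, 50,000 per well in supplemented RPMI 1640 with 10% FBS, received compound 15 min before mitogen.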

| SMILES | melting point [°C] | inhibition at 1 µM [1] [%] | pIC50 [1] | inhibition at 10 µM [1] [%] | inhibition at 100 µM [1] [%] |
| --- | --- | --- | --- | --- | --- |
| O=C(Nc1ccc(-n2nc(C(F)(F)F)cc2C(F)(F)F)cc1)c1cccnc1 [Example 106, N-[4-[3,5-bis(trifluoromethyl)-1H-pyrazol-1-yl]phenyl]-3-pyridinecarboxamide] | 185 to 188 | – | 6.63 | 100 | – |
| O=C(Nc1ccc(-n2nc(C(F)(F)F)cc2OC(F)F)cc1)c1ccccc1Cl [Example 353, 2-chloro-N-(4-(5-(difluoromethoxy)-3-(trifluoromethyl)-1H-pyrazol-1-yl)phenyl)benzamide] | 122 to 123 | – | 6.76 | – | – |
| O=C(Nc1ccc(-n2nc(C(F)(F)F)cc2C(F)(F)F)cc1)c1ccc(F)c(C(F)(F)F)c1 [Example 195, N-[4-[3,5-bis(trifluoromethyl)-1H-pyrazol-1-yl]phenyl]-4-fluoro-3-(trifluoromethyl)benzamide] | 142 to 144 | 22 | – | – | – |
| O=C(Nc1ccc(-n2nc(C(F)(F)F)cc2C(F)(F)F)cc1)c1c(Cl)ccc([N+](=O)[O-])c1Cl [Example 216, N-[4-[3,5-bis(trifluoromethyl)-1H-pyrazol-1-yl]phenyl]-2,6-dichloro-3-nitrobenzamide] | 160 to 161 | – | 6.57 | 100 | – |
| COc1ccc(Br)c(C(=O)Nc2ccc(-n3nc(C(F)(F)F)cc3C(F)(F)F)cc2)c1 [Example 219, N-[4-[3,5-bis(trifluoromethyl)-1H-pyrazol-1-yl]phenyl]-2-bromo-5-methoxybenzamide] | 179 to 181 | – | 6.67 | 100 | – |
| FC(F)(F)c1cc(C(F)(F)F)n(-c2ccc(/C=C/c3ccccc3Cl)cc2)n1 [Example 154, (E)-1-[4-[2-(2-chlorophenyl)ethenyl]phenyl]-3,5-bis(trifluoromethyl)-1H-pyrazole] | 81 to 82 | – | 5.42 | 52 | – |
| Cc1nc(C)n(-c2ccc(NC(=O)c3c(C)noc3C)cc2)n1 [Example 189, 3,5-dimethyl-N-[4-(3,5-dimethyl-1H-1,2,4-triazol-1-yl)phenyl]-4-isoxazolecarboxamide] | 170 to 171 | 24 | – | – | – |
| O=C(Nc1ccc(-n2nc(C(F)(F)F)cc2C(F)(F)F)cc1)c1cc(F)c(Cl)cc1F [Example 225, N-[4-[3,5-bis(trifluoromethyl)-1H-pyrazol-1-yl]phenyl]-4-chloro-2,5-difluorobenzamide] | 160 to 162 | – | 6.81 | 98 | – |
| O=C(Nc1ccc(-n2nc(C(F)(F)F)cc2C(F)(F)F)cc1)c1c(F)cccc1C(F)(F)F [Example 213, N-[4-[3,5-bis(trifluoromethyl)-1H-pyrazol-1-yl]phenyl]-2-fluoro-6-(trifluoromethyl)benzamide] | 175 to 176 | – | 6.36 | 100 | – |
| FC(F)(F)c1cc(C(F)(F)F)n(-c2ccc(NCc3ccccc3Cl)cc2)n1 [Example 82, N-[4-[3,5-bis(trifluoromethyl)-1H-pyrazol-1-yl]phenyl]-2-chlorobenzenemethanamine] | 240 | – | 6.33 | – | 100 |
| O=C(Nc1ccc(-n2nc(C(F)(F)F)cc2C(F)(F)F)cc1)c1cccc(CO)c1 [Example 51, N-[4-[3,5-bis(trifluoromethyl)-1H-pyrazol-1-yl]phenyl]-3-(hydroxymethyl)benzamide] | 160 to 162 | – | 6.11 | 100 | – |
| O=C(Nc1ccc(-n2nc(C(F)(F)F)cc2C(F)(F)F)cc1)c1ccc(Br)cc1 [Example 85, N-[4-[3,5-bis(trifluoromethyl)-1H-pyrazol-1-yl]phenyl]-4-bromobenzamide] | 205 to 207 | – | 6.56 | – | 93 |
| Cc1nc(C)n(-c2ccc(NC(=O)c3snnc3C)cc2)n1 [Example 289, N-[4-(3,5-dimethyl-1H-1,2,4-triazol-1-yl)phenyl]-4-methyl-1,2,3-thiadiazole-5-carboxamide] | 144 to 145 | 22 | – | – | – |

The next lines start with results.

| melting point [°C] | SMILES | inhibition at 1 µM [1] [%] | pIC50 [1] | inhibition at 10 µM [1] [%] | inhibition at 100 µM [1] [%] |
| --- | --- | --- | --- | --- | --- |
| 187 to 188 | O=C(Nc1c(F)cccc1F)c1ccc(-n2nc(C(F)(F)F)cc2C(F)(F)F)cc1 [Example 191, 4-[3,5-Bis(trifluoromethyl)-1H-pyrazol-1-yl]-N-(2,6-difluorophenyl)benzamide] | 99 | 6.94 | – | – |
| 177 to 178 | Cc1noc(C)c1C(=O)Nc1ccc(-n2ccc(C(F)(F)F)n2)cc1 [Example 287, 3,5-dimethyl-N-[4-[3-(trifluoromethyl)-1H-pyrazol-1-yl)phenyl]-4-isoxazolecarboxamide] | 24 | – | – | – |
| 149 to 150 | O=C(Nc1ccc(-n2nc(C(F)(F)F)cc2OC(F)F)cc1)c1cccnc1F [Example 324, N-(4-(5-(difluoromethoxy)-3-(trifluoromethyl)-1H-pyrazol-1-yl)phenyl)-2-fluoronicotinamide] | – | 7.05 | – | – |
| 168 to 169 | O=C(Nc1ccc(-n2nc(C(F)(F)F)cc2C(F)(F)F)cc1)c1cc(F)ccc1F [Example 211, N-[4-[3,5-bis(trifluoromethyl)-1H-pyrazol-1-yl]phenyl]-2,5-difluorobenzamide] | – | 7.41 | 98 | – |
| 213 to 215 | O=C(Nc1ccc(-n2nc(C(F)(F)F)cc2C(F)(F)F)cc1)c1cc2ccccc2o1 [Example 19, N-[4-[3,5-bis(trifluoromethyl)-1H-pyrazol-1-yl]phenyl]-2-benzofurancarboxamide] | 9 | – | – | – |
| 119 to 120 | Cc1ccoc1C(=O)Nc1ccc(-n2nc(C(F)(F)F)cc2C(F)(F)F)cc1 [Example 252, N-[4-[3,5-bis(trifluoromethyl)-1H-pyrazol-1-yl]phenyl]-3-methyl-2-furancarboxamide] | 36 | – | – | – |
| 144 to 145 | O=C(CCCl)Nc1ccc(-n2nc(C(F)(F)F)cc2C(F)(F)F)cc1 [Example 70, N-[4-[3,5-bis(trifluoromethyl)-1H-pyrazol-1-yl]phenyl]-3-chloropropanamide] | – | 6.04 | – | 100 |
| 51 to 53 | Cc1nnsc1C(=O)Nc1ccc(-n2nc(C(F)(F)F)cc2C)cc1 [Example 282, 4-methyl-N-[4-[5-methyl-3-(trifluoromethyl)-1H-pyrazol-1-yl]phenyl]-1,2,3-thiadiazole-5-carboxamide] | – | 6.61 | – | 100 |
| 142 to 144 | O=C(Nc1ccc(-n2nc(C(F)(F)F)cc2C(F)(F)F)cc1)c1cccc(Cl)c1 [Example 130, N-[4-[3,5-bis(trifluoromethyl)-1H-pyrazol-1-yl]phenyl]-3-chlorobenzamide] | – | 6.47 | – | 100 |
| 138 to 139 | O=C(Nc1ccc(-n2nc(C(F)(F)F)cc2C(F)(F)F)cc1)c1ccc(F)c(Cl)c1 [Example 210, N-[4-[3,5-bis(trifluoromethyl)-1H-pyrazol-1-yl]phenyl]-3-chloro-4-fluorobenzamide] | – | 6.62 | 100 | – |
